Measured values as given in PMC6402191 (Clinical and Translational Science, 2017).

Tests used:
[1] = molecular target: P-gp (Homo sapiens, UniProt P08183); test: Bidirectional transport of baricitinib in MDCK-MDR1 cells; format: in vitro ADME
[2] = molecular target: T1, OCT1 (Homo sapiens, UniProt O15245); test: Baricitinib substrate study in OCT1-transfected HEK-PEAK cells; format: in vitro ADME
T1 sequence (O15245 1-554): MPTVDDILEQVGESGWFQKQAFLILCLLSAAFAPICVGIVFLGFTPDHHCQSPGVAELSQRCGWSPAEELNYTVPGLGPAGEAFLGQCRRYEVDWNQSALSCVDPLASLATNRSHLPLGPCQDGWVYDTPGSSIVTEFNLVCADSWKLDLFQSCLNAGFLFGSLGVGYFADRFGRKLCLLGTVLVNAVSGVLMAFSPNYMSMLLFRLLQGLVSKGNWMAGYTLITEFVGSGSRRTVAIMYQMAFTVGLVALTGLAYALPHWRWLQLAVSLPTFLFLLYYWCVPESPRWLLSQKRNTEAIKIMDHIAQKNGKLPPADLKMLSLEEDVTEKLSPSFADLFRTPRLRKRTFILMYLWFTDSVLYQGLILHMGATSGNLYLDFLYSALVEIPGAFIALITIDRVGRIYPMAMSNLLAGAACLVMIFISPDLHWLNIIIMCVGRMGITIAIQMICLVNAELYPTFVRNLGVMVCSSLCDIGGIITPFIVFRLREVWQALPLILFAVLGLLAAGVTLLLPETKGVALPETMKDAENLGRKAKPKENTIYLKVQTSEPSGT

[3] = molecular target: T2, OATP1B1 (Homo sapiens, UniProt Q9Y6L6); test: Baricitinib substrate study in OATP1B1-transfected HEK-PEAK cells; format: in vitro ADME
T2 sequence (Q9Y6L6 1-691): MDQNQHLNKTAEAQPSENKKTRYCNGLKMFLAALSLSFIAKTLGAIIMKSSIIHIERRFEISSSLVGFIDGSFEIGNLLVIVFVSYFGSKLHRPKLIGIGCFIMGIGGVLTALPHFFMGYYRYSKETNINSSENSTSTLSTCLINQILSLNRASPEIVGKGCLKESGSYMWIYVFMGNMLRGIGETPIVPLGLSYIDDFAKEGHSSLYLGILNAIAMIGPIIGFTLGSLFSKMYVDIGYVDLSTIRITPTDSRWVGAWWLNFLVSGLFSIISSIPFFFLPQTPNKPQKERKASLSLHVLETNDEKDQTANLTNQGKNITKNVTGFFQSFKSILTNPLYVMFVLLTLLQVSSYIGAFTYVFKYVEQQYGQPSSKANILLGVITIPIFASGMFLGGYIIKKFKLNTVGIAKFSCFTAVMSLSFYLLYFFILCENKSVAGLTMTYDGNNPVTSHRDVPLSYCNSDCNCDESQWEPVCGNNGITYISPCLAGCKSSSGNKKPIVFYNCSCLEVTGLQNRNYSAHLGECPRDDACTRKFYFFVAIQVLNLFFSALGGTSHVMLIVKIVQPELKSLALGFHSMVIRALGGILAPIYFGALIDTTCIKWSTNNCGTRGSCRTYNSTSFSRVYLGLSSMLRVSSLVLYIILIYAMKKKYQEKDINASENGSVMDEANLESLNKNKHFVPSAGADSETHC

[4] = molecular target: T3, OAT1 (Homo sapiens, UniProt Q4U2R8); test: Baricitinib substrate study in OAT1-transfected HEK-PEAK cells; format: in vitro ADME
T3 sequence (Q4U2R8 1-563): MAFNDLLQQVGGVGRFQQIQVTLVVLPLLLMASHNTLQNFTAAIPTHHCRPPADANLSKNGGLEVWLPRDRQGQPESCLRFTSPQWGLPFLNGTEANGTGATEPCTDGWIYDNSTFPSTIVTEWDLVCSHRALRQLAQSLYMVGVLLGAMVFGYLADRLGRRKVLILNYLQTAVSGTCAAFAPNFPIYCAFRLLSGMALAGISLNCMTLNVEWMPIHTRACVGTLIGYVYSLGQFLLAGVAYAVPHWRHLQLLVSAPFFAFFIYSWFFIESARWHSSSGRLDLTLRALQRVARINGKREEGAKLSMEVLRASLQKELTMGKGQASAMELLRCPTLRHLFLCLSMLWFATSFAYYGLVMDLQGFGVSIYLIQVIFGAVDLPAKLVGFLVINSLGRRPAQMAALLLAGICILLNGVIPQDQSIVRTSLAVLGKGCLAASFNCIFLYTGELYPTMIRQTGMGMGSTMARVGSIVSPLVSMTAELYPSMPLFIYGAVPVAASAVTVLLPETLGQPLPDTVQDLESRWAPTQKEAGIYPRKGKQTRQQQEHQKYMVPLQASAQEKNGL

[5] = molecular target: T4, MATE1 (Homo sapiens, UniProt Q96FL8); test: Baricitinib substrate study in MATE1-transfected HEK cells; format: in vitro ADME
T4 sequence (Q96FL8 1-570): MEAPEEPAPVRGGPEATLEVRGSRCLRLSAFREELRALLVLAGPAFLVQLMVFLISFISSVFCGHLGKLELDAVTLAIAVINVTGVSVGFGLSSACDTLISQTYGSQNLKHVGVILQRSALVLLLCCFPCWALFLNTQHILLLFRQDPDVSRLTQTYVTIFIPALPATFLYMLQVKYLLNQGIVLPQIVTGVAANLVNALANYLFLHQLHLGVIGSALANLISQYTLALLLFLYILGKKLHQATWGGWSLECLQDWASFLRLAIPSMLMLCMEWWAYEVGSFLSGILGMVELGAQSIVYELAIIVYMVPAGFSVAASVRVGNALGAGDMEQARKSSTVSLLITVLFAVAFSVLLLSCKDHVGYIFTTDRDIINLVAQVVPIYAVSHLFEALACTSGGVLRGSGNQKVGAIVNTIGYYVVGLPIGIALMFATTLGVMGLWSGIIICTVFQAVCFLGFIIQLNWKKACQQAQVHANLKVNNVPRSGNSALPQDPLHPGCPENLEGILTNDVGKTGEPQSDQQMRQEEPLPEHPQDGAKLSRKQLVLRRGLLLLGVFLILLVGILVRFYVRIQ

[6] = Plasma protein binding; format: in vitro ADME; conditions: human
[7] = Pharmacokinetic input parameters of the PBPK models; format: in vivo, human; conditions: fitted to match clinical data
[8] = cited from earlier work

P-gp, sequence (P08183 whole entry): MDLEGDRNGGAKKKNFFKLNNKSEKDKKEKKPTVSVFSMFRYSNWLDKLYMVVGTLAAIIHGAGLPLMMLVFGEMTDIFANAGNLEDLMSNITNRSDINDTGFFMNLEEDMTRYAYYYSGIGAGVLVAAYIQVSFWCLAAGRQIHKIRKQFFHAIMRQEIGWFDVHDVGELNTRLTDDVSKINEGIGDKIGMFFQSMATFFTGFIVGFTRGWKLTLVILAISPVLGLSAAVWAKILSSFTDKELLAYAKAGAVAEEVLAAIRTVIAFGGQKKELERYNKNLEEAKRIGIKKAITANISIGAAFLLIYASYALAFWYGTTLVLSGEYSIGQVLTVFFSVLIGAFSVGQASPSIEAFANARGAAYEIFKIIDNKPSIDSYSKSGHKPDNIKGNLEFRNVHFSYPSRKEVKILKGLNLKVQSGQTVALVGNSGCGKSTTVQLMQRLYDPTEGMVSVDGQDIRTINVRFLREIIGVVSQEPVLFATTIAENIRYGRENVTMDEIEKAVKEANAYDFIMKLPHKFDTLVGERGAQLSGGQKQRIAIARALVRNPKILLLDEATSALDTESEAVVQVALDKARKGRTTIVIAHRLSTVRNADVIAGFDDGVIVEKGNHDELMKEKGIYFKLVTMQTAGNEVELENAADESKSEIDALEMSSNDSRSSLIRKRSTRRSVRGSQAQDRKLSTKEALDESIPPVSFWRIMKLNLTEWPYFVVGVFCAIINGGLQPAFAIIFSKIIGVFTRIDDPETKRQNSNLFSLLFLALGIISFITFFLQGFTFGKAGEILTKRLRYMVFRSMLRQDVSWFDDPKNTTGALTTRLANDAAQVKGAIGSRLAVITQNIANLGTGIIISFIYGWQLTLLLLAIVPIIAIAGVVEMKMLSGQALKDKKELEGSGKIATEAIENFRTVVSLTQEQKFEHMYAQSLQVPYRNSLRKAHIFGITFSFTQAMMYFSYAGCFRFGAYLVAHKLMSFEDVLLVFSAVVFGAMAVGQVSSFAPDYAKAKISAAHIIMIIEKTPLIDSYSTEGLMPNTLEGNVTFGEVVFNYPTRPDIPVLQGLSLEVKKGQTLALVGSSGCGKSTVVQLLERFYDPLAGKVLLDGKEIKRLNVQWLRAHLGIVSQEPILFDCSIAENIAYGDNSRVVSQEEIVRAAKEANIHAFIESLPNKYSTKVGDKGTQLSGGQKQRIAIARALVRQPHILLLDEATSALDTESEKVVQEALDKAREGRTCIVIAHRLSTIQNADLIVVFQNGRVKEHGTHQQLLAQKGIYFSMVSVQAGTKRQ

P-gp substrate [1]: P‐gp substrate | Papp at 5 μM ([1]; dog, MDCK): 6.6 ×10⁻⁶ cm/s | Papp A→B at 5 µM ([1]; dog, MDCK-MDR1): 0.9 ×10⁻⁶ cm/s | Papp B→A at 5 µM ([1]; dog, MDCK-MDR1): 35.2 ×10⁻⁶ cm/s | OCT1 substrate [2]: not a substrate | OATP1B1 substrate [3]: not a substrate | OAT1 substrate [4]: not a substrate | MATE1 substrate [5]: not a substrate | fraction unbound [6]: 0.5 | ka (first-order absorption rate constant) [7]: 1.2 h^‐1
SMILES: CCS(=O)(=O)N1CC(CC#N)(n2cc(-c3ncnc4[nH]ccc34)cn2)C1 [Baricitinib]
eliminated unchanged in urine [8]: 70 % of dose | renal clearance [8]: ~11 L/h | decrease in renal secretory clearance with cyclosporine ([8]; single 600 mg dose of cyclosporine): 30%
